Test results published in patent publication US12371748B2, “Genetic markers for predicting responsiveness to therapy with HDL-raising or HDL mimicking agent” (Hoffmann-La Roche Inc., priority 2014, dated 2025).

System: patients with evidence of coronary artery disease
Test: dal-PLAQUE-2: change in carotid intima-media thickness (B-mode ultrasound) by ADCY9 genotype
Type: in vivo, human
Description: The dal-PLAQUE-2 study (Tardif J C et al, Circulation Cardiovascular imaging 2011; 4:319-33) was a phase 3b multicenter, double-blind, randomized, placebo-controlled, parallel group trial designed to evaluate the effect of dalcetrapib on atherosclerotic disease progression in patients with evidence of coronary artery disease and carotid intima media thickness of at least 0.65 mm in the far wall of the common carotid arteries, as assessed by B-mode ultrasonography. A total of 931 patients were randomized to receive dalcetrapib 600 mg daily or matching placebo with intended treatment duration of 24 months. However, the trial was terminated prematurely concurrent with the termination of dal OUTCOMES (the latter due to futility). Patients continued study medication until they returned for follow-up carotid imaging at 12 months. Carotid B-mode ultrasound recordings at baseline, month 6, and month 12 were analyzed centrally at the core laboratory of the Montreal Heart Institute. Intima-media thickness (IMT) was analyzed on the far wall of the common carotid arteries. A segment of 10 mm in length of the common carotid artery was analyzed on serial examinations using an automated edge detection software (Carotid Analyzer, Medical Imaging Applications, Coralville, Iowa). Among the 411 participants in the dal-PLAQUE-2 trial who consented to the genetic study, 386 had imaging measures at baseline, 6 months and 12 months (194 and 192 in the dalcetrapib and placebo arms respectively). DNA was extracted from whole blood. The research protocols were approved by the relevant institutional review boards or ethics committees and all human participants gave written informed consent.
All acquired carotid ultrasound recordings were analyzed at the core laboratory of the Montreal Heart Institute by experienced technicians supervised by a physician. Images were required to meet quality and inclusion and exclusion criteria for eligibility prior to random assignment to study treatment. The methods for carotid intima-media thickness analysis included side-by-side viewing of baseline and follow-up studies.
Carotid arterial wall segments were assessed in a longitudinal view, perpendicular to the ultrasound beam, with a horizontal display of the arterial image in order to view the interfaces between blood and vascular structures on the longest possible segment. The localization of the end of the common carotid artery was used as the landmark in repositioning and analyzing comparative length of segments in baseline and follow-up studies. Intima-media thickness was analyzed on the far wall of the right and left common carotid arteries, to reduce variability of measurements. The average of the mean intima-media thickness values of the right and left common carotid arteries was used. A matched segment of 10 mm in length of the common carotid artery was analyzed on serial examinations (baseline, 6 months and 12 months), starting 5 mm proximal to the carotid bifurcation. The edge detection software Carotid Analyzer (Medical Imaging Applications LLC, Coralville, Iowa) was used to analyze intima-media thickness using the automated option. Two sets of carotid artery borders were identified: First, the media-adventitia borders were determined and verified by the reader. When required, their locations were semi-automatically modified to the correct location. When these borders were approved, the lumen-intima boundaries were automatically detected using the media-adventitia borders for guidance. Frames from looped sequences of intima-media thickness were selected for reading, and poor quality outlier frames were removed from the analysis when required.
For the dal-Plaque-2 population, mixed regression models for repeated measures analysis were tested in SAS software. The dal-Plaque-2 tested endpoint was the mean of IMT measures of common carotid arteries at the 6-month and the 12-month visits, using the baseline measure as covariate. […]

Compound: CCC(CC)CC1(C(=O)Nc2ccccc2SC(=O)C(C)C)CCCCC1 [dalcetrapib, thioisobutyric acid S-(2-{[1-(2-ethyl-butyl)-cyclohexanecarbonyl]-amino}-phenyl) ester]
- Change from baseline in carotid intima-media thickness, Mean (rs8061182, homozygotes for minor allele, M12): −0.001 mm
- Change from baseline in carotid intima-media thickness, Mean (rs11647778, heterozygotes, M06): −0.002 mm
- Change from baseline in carotid intima-media thickness, Mean (rs11647778, heterozygotes, M12): 0.001 mm
- Change from baseline in carotid intima-media thickness, Mean (rs11647778, homozygotes for major allele, M06): 0.011 mm
- Change from baseline in carotid intima-media thickness, Mean (rs11647778, homozygotes for major allele, M12): 0.008 mm
- Change from baseline in carotid intima-media thickness, Mean (rs11647778, homozygotes for minor allele, M06): −0.013 mm
- Change from baseline in carotid intima-media thickness, Mean (rs11647778, homozygotes for minor allele, M12): −0.026 mm
- Change from baseline in carotid intima-media thickness, Mean (rs11647828, heterozygotes, M06): −0.002 mm
- Change from baseline in carotid intima-media thickness, Mean (rs11647828, heterozygotes, M12): −0.003 mm
- Change from baseline in carotid intima-media thickness, Mean (rs11647828, homozygotes for major allele, M06): 0.011 mm
- Change from baseline in carotid intima-media thickness, Mean (rs11647828, homozygotes for major allele, M12): 0.009 mm
- Change from baseline in carotid intima-media thickness, Mean (rs11647828, homozygotes for minor allele, M06): −0.018 mm
- Change from baseline in carotid intima-media thickness, Mean (rs11647828, homozygotes for minor allele, M12): −0.020 mm
- Change from baseline in carotid intima-media thickness, Mean (rs12595857, heterozygotes, M06): −0.003 mm
- Change from baseline in carotid intima-media thickness, Mean (rs12595857, heterozygotes, M12): −0.002 mm
- Change from baseline in carotid intima-media thickness, Mean (rs12595857, homozygotes for major allele, M06): 0.011 mm
- Change from baseline in carotid intima-media thickness, Mean (rs12595857, homozygotes for major allele, M12): 0.010 mm
- Change from baseline in carotid intima-media thickness, Mean (rs12595857, homozygotes for minor allele, M06): −0.008 mm
- Change from baseline in carotid intima-media thickness, Mean (rs12595857, homozygotes for minor allele, M12): −0.018 mm
- Change from baseline in carotid intima-media thickness, Mean (rs12599911, heterozygotes, M06): −0.003 mm
- Change from baseline in carotid intima-media thickness, Mean (rs12599911, heterozygotes, M12): −0.002 mm
- Change from baseline in carotid intima-media thickness, Mean (rs12599911, homozygotes for major allele, M06): 0.011 mm
- Change from baseline in carotid intima-media thickness, Mean (rs12599911, homozygotes for major allele, M12): 0.010 mm
- Change from baseline in carotid intima-media thickness, Mean (rs12599911, homozygotes for minor allele, M06): −0.008 mm
- Change from baseline in carotid intima-media thickness, Mean (rs12599911, homozygotes for minor allele, M12): −0.019 mm
- Change from baseline in carotid intima-media thickness, Mean (rs12920508, heterozygotes, M06): −0.003 mm
- Change from baseline in carotid intima-media thickness, Mean (rs12920508, heterozygotes, M12): −0.001 mm
- Change from baseline in carotid intima-media thickness, Mean (rs12920508, homozygotes for major allele, M06): 0.006 mm
- Change from baseline in carotid intima-media thickness, Mean (rs12920508, homozygotes for major allele, M12): 0.005 mm
- Change from baseline in carotid intima-media thickness, Mean (rs12920508, homozygotes for minor allele, M06): −0.005 mm
- Change from baseline in carotid intima-media thickness, Mean (rs12920508, homozygotes for minor allele, M12): −0.021 mm
- Change from baseline in carotid intima-media thickness, Mean (rs12935810, heterozygotes, M06): −0.003 mm
- Change from baseline in carotid intima-media thickness, Mean (rs12935810, heterozygotes, M12): −0.001 mm
- Change from baseline in carotid intima-media thickness, Mean (rs12935810, homozygotes for major allele, M06): −0.006 mm
- Change from baseline in carotid intima-media thickness, Mean (rs12935810, homozygotes for major allele, M12): −0.007 mm
- Change from baseline in carotid intima-media thickness, Mean (rs12935810, homozygotes for minor allele, M06): 0.021 mm
- Change from baseline in carotid intima-media thickness, Mean (rs12935810, homozygotes for minor allele, M12): 0.010 mm
- Change from baseline in carotid intima-media thickness, Mean (rs13337675, heterozygotes, M06): 0.002 mm
- Change from baseline in carotid intima-media thickness, Mean (rs13337675, heterozygotes, M12): 0.005 mm
- Change from baseline in carotid intima-media thickness, Mean (rs13337675, homozygotes for minor allele, M06): 0.016 mm
- Change from baseline in carotid intima-media thickness, Mean (rs13337675, homozygotes for minor allele, M12): −0.011 mm
- Change from baseline in carotid intima-media thickness, Mean (rs17136707, heterozygotes, M06): −0.006 mm
- Change from baseline in carotid intima-media thickness, Mean (rs17136707, heterozygotes, M12): −0.004 mm
- Change from baseline in carotid intima-media thickness, Mean (rs17136707, homozygotes for minor allele, M06): −0.015 mm
- Change from baseline in carotid intima-media thickness, Mean (rs17136707, homozygotes for minor allele, M12): −0.008 mm
- Change from baseline in carotid intima-media thickness, Mean (rs74702385, heterozygotes, M06): −0.006 mm
- Change from baseline in carotid intima-media thickness, Mean (rs74702385, heterozygotes, M12): −0.002 mm
- Change from baseline in carotid intima-media thickness, Mean (rs74702385, homozygotes for minor allele, M06): −0.015 mm
- Change from baseline in carotid intima-media thickness, Mean (rs74702385, homozygotes for minor allele, M12): −0.008 mm
- Change from baseline in carotid intima-media thickness, Mean (rs111590482, heterozygotes, M06): −0.006 mm
- Change from baseline in carotid intima-media thickness, Mean (rs111590482, heterozygotes, M12): −0.002 mm
- Change from baseline in carotid intima-media thickness, Mean (rs111590482, homozygotes for minor allele, M06): −0.015 mm
- Change from baseline in carotid intima-media thickness, Mean (rs111590482, homozygotes for minor allele, M12): −0.008 mm
